Results reported in ChEMBL document CHEMBL1140621, “2D-autocorrelation descriptors for predicting cytotoxicity of naphthoquinone ester derivatives against oral human epidermoid carcinoma” (Bioorg Med Chem, 2007).

Test system: KB
Experiment: Cytotoxicity against human KB cells
Type: functional, cell-based

COc1cc(C(=O)OCC(C)(C)CC2=CC(=O)c3ccccc3C2=O)c(OC)c2ccccc12
IC50: 12.5 µM
